In publication PMC7933434, “Entropy-driven binding of gut bacterial β-glucuronidase inhibitors ameliorates irinotecan-induced toxicity” (Communications Biology, 2021):
Values joined by “and” are separate entries in the source; they are usually repeats but may differ in a detail not shown here. Identical values can stand only once. “Also recorded” adds a separate entry of the source.

Assays:
[1] = target: T1, HsGUS (human GUS) (Homo sapiens, UniProt P08236); assay: GUS inhibition assay, hydrolysis of 4-methylumbelliferyl-β-glucuronide, HsGUS; assay type: biochemical; parameters: GUS activity (hydrolysis rate of MUG): unit not given here; details: [Inhibitor 3] =3.75 μM
T1 construct: HsGUS was prepared as described[37]; made in house
T1 sequence (P08236 23-651): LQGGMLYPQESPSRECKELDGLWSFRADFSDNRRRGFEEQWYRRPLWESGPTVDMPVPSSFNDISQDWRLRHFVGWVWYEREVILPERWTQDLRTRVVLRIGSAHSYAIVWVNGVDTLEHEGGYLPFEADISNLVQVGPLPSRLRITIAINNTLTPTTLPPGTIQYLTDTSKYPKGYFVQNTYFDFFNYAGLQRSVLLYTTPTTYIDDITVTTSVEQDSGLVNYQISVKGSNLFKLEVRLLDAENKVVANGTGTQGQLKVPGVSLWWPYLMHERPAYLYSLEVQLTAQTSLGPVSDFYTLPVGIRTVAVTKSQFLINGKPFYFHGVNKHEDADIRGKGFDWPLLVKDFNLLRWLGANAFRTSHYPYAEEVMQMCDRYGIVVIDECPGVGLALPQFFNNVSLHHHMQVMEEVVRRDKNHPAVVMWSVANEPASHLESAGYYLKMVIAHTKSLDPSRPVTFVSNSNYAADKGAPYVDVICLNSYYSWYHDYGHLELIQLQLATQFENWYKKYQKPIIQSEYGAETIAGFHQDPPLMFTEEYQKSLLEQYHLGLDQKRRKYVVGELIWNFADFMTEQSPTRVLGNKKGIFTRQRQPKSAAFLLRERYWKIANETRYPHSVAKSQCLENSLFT

[2] = target: EcGUS (Escherichia coli GUS) (Escherichia coli, UniProt P05804); assay: biochemical
Sequence of EcGUS (Escherichia coli GUS) (P05804 whole entry): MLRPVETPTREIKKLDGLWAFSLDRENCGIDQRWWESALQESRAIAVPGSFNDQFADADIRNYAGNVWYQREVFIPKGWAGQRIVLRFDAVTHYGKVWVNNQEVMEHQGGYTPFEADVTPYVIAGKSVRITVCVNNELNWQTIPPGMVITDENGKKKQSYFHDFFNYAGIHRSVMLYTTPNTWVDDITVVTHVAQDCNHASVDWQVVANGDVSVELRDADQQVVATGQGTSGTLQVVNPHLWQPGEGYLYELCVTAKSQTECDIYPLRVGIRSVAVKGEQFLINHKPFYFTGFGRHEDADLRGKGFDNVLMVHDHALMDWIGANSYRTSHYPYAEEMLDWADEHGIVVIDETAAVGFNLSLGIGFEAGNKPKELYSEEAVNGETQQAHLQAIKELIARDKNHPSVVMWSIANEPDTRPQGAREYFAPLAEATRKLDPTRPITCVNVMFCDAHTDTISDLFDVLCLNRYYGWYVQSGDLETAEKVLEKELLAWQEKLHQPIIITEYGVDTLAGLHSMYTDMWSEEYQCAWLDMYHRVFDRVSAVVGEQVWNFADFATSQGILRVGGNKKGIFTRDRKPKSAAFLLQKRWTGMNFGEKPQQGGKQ

[3] = target: BdGUS (Bifidobacterium dentium GUS) (Bifidobacterium dentium, UniProt D2Q7B1); assay: biochemical; parameters: GUS activity (hydrolysis rate of MUG) / 1/v: unit not given here
Sequence of BdGUS (Bifidobacterium dentium GUS) (D2Q7B1 1-668): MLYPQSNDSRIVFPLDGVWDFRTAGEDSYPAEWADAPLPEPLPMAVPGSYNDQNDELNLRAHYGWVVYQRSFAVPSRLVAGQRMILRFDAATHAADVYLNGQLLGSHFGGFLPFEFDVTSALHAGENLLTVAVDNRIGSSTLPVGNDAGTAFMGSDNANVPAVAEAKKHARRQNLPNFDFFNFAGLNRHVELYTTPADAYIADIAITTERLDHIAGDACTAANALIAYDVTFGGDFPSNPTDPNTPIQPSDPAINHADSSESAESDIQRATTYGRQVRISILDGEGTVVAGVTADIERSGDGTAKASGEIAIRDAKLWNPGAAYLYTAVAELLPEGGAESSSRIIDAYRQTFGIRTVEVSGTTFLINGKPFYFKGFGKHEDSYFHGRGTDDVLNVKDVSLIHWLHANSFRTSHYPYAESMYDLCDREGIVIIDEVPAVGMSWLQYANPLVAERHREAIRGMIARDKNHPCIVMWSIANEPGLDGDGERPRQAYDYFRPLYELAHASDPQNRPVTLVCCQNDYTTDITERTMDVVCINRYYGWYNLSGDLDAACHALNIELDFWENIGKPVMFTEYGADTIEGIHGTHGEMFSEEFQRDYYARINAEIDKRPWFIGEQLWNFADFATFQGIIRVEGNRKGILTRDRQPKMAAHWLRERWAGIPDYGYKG

[4] = target: EcGUS (Escherichia coli, UniProt P05804); assay: Isothermal titration calorimetry, EcGUS; assay type: binding; details: EcGUS
Sequence of EcGUS (P05804 whole entry): as the sequence (P05804 whole entry) above

[5] = target: BdGUS (Bifidobacterium dentium, UniProt D2Q7B1); assay: biochemical; assay type: binding; details: BdGUS; Tris buffer (250 mM NaCl, 20 mM Tris, pH 8.0); 298 K
Sequence of BdGUS (D2Q7B1 entry or part of it): as the sequence (D2Q7B1 1-668) above

[6] = [Inhibitor 3] = 0.25 μM, [MUG] 0.375 mM
[7] = [Inhibitor 3] = 0.25 μM, [MUG] 0.75 mM
[8] = [Inhibitor 3] = 0.25 μM, [MUG] 1.5 mM
[9] = [Inhibitor 3] = 0.25 μM, [MUG] 3 mM
[10] = [Inhibitor 3] = 0.5 μM, [MUG] 0.375 mM
[11] = [Inhibitor 3] = 0.5 μM, [MUG] 0.75 mM
[12] = [Inhibitor 3] = 0.5 μM, [MUG] 1.5 mM
[13] = [Inhibitor 3] = 0.5 μM, [MUG] 3 mM
[14] = [Inhibitor 3] = 1 μM, [MUG] 0.375 mM
[15] = [Inhibitor 3] = 1 μM, [MUG] 0.75 mM
[16] = [Inhibitor 3] = 1 μM, [MUG] 1.5 mM
[17] = [Inhibitor 3] = 1 μM, [MUG] 3 mM
[18] = [Inhibitor 3] = 2 μM, [MUG] 0.375 mM
[19] = [Inhibitor 3] = 2 μM, [MUG] 0.75 mM
[20] = [Inhibitor 3] = 2 μM, [MUG] 1.5 mM
[21] = [Inhibitor 3] = 2 μM, [MUG] 3 mM
[22] = phosphate buffer (250 mM NaCl, 20 mM KH2PO4, 100 mM Na2HPO4, pH 8.0), 298 K

CCCCCC[C@@H]1NC[C@@H](O)[C@H](O)[C@H]1C(=O)O [Inhibitor 3, C6-hexyl UIFG]
GUS activity (hydrolysis rate of MUG) ([1]; [MUG] 1.2 mM): 3484.96 and 3524 | GUS activity (hydrolysis rate of MUG) ([1]; [MUG] 1.6 mM): 3945.8 and 4134.14 | GUS activity (hydrolysis rate of MUG) ([1]; [MUG] 2 mM): 4453.48 and 4566.78 | Ki ([2]; 50 mM HEPES pH 7.5, 37 °C): 0.003 ± 0.0006 µM | Ki ([2]; source data of Table 1, from plot of apparent Km against [inhibitor] (μM)): 0.00316 µM | Ki ([3]; BdGUS, 50 mM HEPES pH 7.5, 37 °C): 860 ± 200 nM | 1/v [3, 6]: 0.8098 and 0.8436 and 0.8112 | GUS activity (hydrolysis rate of MUG) [3, 6]: 0.2757 and 0.2647 and 0.2753 | 1/v [3, 7]: 0.4851 and 0.501 and 0.4979 | GUS activity (hydrolysis rate of MUG) [3, 7]: 0.4603 and 0.4457 and 0.4485 | 1/v [3, 8]: 0.3326 and 0.3553 and 0.3441 | GUS activity (hydrolysis rate of MUG) [3, 8]: 0.6714 and 0.6286 and 0.649 | 1/v [3, 9]: 0.2934 and 0.2936 and 0.2832 | GUS activity (hydrolysis rate of MUG) [3, 9]: 0.761 and 0.7606 and 0.7885 | 1/v [3, 10]: 1.013 and 1.039 and 0.9379 | GUS activity (hydrolysis rate of MUG) [3, 10]: 0.2203 and 0.2148 and 0.2381 | 1/v [3, 11]: 0.5713 and 0.5847 and 0.5765 | GUS activity (hydrolysis rate of MUG) [3, 11]: 0.3909 and 0.3819 and 0.3873 | 1/v [3, 12]: 0.386 and 0.3868 and 0.3898 | GUS activity (hydrolysis rate of MUG) [3, 12]: 0.5784 and 0.5773 and 0.5728 | 1/v [3, 13]: 0.2997 and 0.3073 and 0.3039 | GUS activity (hydrolysis rate of MUG) [3, 13]: 0.7451 and 0.7267 and 0.7347 | 1/v [3, 14]: 1.333 and 1.373 and 1.236 | GUS activity (hydrolysis rate of MUG) [3, 14]: 0.1676 and 0.1627 and 0.1806 | 1/v [3, 15]: 0.7658 and 0.7424 and 0.7331 | GUS activity (hydrolysis rate of MUG) [3, 15]: 0.2916 and 0.3008 and 0.3046 | 1/v [3, 16]: 0.4723 and 0.4867 and 0.4608 | GUS activity (hydrolysis rate of MUG) [3, 16]: 0.4727 and 0.4588 and 0.4846 | 1/v [3, 17]: 0.3528 and 0.337 and 0.3348 | GUS activity (hydrolysis rate of MUG) [3, 17]: 0.6328 and 0.6626 and 0.667 | 1/v [3, 18]: 1.957 and 1.888 and 1.908 | GUS activity (hydrolysis rate of MUG) [3, 18]: 0.1141 and 0.1183 and 0.117 | 1/v [3, 19]: 1.031 and 0.9985 and 1.0212 | GUS activity (hydrolysis rate of MUG) [3, 19]: 0.2167 and 0.2236 and 0.2187 | 1/v [3, 20]: 0.6082 and 0.615 and 0.6155 | GUS activity (hydrolysis rate of MUG) [3, 20]: 0.3672 and 0.3631 and 0.3628 | 1/v [3, 21]: 0.4308 and 0.4219 and 0.4288 | GUS activity (hydrolysis rate of MUG) [3, 21]: 0.5183 and 0.5293 and 0.5208 | ΔH ([4]; Tris buffer (250 mM NaCl, 20 mM Tris, pH 8.0), 298 K): Essentially no enthalpy change was evident; also recorded: close to zero | ΔΔH relative to 2 (ΔΔH2–3, ΔΔH2–4) ([4]; phosphate buffer): +0.04 kcal mol^−1 | –TΔΔS relative to 2 (–TΔΔS2–3, –TΔΔS2–4) ([4]; phosphate buffer): –1.32 kcal mol^−1 | Kd [4, 22]: 30 ± 10 nM | ΔG [4, 22]: –10.24 ± 0.18 kcal/mol | ΔH [4, 22]: –3.95 ± 0.06 kcal/mol | —TΔS [4, 22]: –6.29 ± 0.13 kcal/mol | ΔH [5]: Essentially no enthalpy change was evident
